Structures can show the parent of a compound that is named as a salt. Where two headings read alike, the source gives them in different places.
Experiments:
Format in all cases: cell-based
F508del CFTR = target: T1, F508del CFTR (Homo sapiens, UniProt P13569, DEL508-508); test: YFP fluorescence quenching functional assay (iodide influx), HEK293 cells with F508del CFTR and halide sensitive YFP; details: for remaining activity at 10 µM: HEK293, read-out: % YFP quench; for remaining activity at 10 µM / % YFP quench: 24 h, nc = 100% pc = 69.2, 10 μM
T1 construct: expressed in transfected cells; host or cells: HEK293 Griptite cells stably expressing F508del CFTR, transiently transfected with halide-sensitive eYFP
Experimental: In addition to the MDS compounds, the 1120 Prestwick Library compounds were screened. (See FIGS. 7 to 12.) Of the compounds, one qualified as a “strong” hit, 3 as “medium” hits and 57 as “weak” hits. The Z score for the assay was 0.62. The top 50 hits were further tested in a counter screen in which the halide sensitive fluorescent compound (YFP) was expressed inside cells (Table 2). After incubation with the test compounds the ability of the cells to uptake iodide was measure by decreasing YFP fluorescence. In these cells this can only occur if functional CFTR is present at the cell surface (FIG. 7). The hits were also tested for the appearance of the Band C form of CFTR. […] The functionality of the compounds was further studied by the use of Iodide efflux assays for each compound in both BHK and the more physiologically relevant CFBE cells. […] FIG. 10 is a table of results for the 15 hit compounds which summarizes many experiments. […] The results for the best 15 compounds from the Prestwick Library, or “Prestwick 15”, are shown FIGS. 8, 9 and 10.
Strongly adhesive Human […] Kidney cells stably expressing both the human macrophage scavenger receptor (HEK293 Griptite, Invitrogen) and F508del CFTR were plated in 96-well plates and transiently transfected with pcDNA3 plasmid encoding a halide sensitive variant of eYFP. After 24-48 h later cells were exposed to 10 μM test compound in triplicate and incubated for an additional 24 h. Cells were stimulated for 20 minutes with a in a buffer containing 25 μM forskolin, 45 μM IBMX and 50 μM genistein final concentration. The high content screening assay was performed using a Cellomics platform. Iodide was added robotically to a final concentration of 50 mM and the resulting decrease in fluorescence was measured. Images were taken at time 0 and stored for subsequent use when calculating a mask so that only those cells that express YFP at time 0 are measured. The quenching was detected in 15 images taken over the course of an experiment lasting 40 seconds. Each test compound was compared to the following two controls: a negative control without drugs to assess photobleaching that may occur when the same field of view is repeatedly imaged, and a positive control with cells treated with a known potentiator. Results were generated from 150-300 cells per well.

ΔF508-CFTR [1] = target: T2, ΔF508-CFTR (Homo sapiens, UniProt P13569, DEL508-508); parameters: which was then ligated into full length pNUT-CFTR linearized using Hpa1 and Pml1; expressed in transfected cells; details: for hit in screen (class letter): BHK cells
Experimental: BHK cells expressing 3HA-tagged ΔF508-CFTR between passages 5-8 were seeded in 96-well plates (Corning half area, black-sided, clear bottom) at 15,000 cells per well and incubated with culture medium for 24 h at 37° C. Each well was then treated with a different test compound (80 compounds per plate) for 24 h at 20 μM final concentration. The remaining 16 wells on each plate were used for control conditions. […] Cells were fixed in a 4% paraformaldehyde solution, washed with PBS, and blocked with PBS containing 5% fetal bovine serum (FBS) for 1 hat 4° C.
Blocking solution was replaced with 15 μl of primary antibody solution containing 1% FBS and mouse monoclonal anti-HA antibody (1:150 dilution, Sigma) in PBS. The plates were sealed and left at 4° C. overnight. After three washes with 100 μl PBS, cells were incubated for 1 h with 15 μl of secondary antibody solution containing 1% FBS and anti-mouse IgG conjugated with FITC (1:100 dilution, Sigma) in PBS. Cells were again washed three times with 100 μl of PBS and analyzed in a plate reader (Analyst™ HT96.384, Biosystems; 488 nm excitation/510 nm emission). […] The mean fluorescence of four untreated wells was used as the background signal when calculating deviations of the 80 compound-treated wells. Hits were then cherry-picked into reservoir plates and re-tested in duplicate using the same assay.
BHK cells expressing ΔF508-CFTR were incubated with test compounds (20 μM) for 24 hours at 37° C. in a 96 well format. Plasma membrane expression of ΔF508-CFTR was then assayed by immunofluorescence using a primary antibody directed against the inserted 3HA tag and a secondary antibody conjugated with a fluorophore (FITC). […] The positive compounds were selected and retested in duplicate to obtain an N of 3. At the re-screening stage, the intrinsic fluorescence of each potential hit was also measured and the fluorescent ones were not considered further.
Screening was performed using BHK cells that stably express F508-CFTR bearing three tandem haemagglutinin-epitope tags (3HA) and linker sequences in the fourth extracellular loop after amino acid 901 (Howard et al., 1995; Carlile et al., 2007; Robert et al., 2008). […] Screening was performed using the Prestwick Chemical Library of 1120 high-purity compounds.

ΔF508-CFTR [2] = target: T2, ΔF508-CFTR; test: three stage ELISA of CFTR surface expression, BHK cells expressing ΔF508-CFTR; parameters: which was then ligated into full length pNUT-CFTR linearized using Hpa1 and Pml1; expressed in transfected cells; details: 10% glycerol or 1 mM sodium 4-phenylbutyrate, 24 hours
Experimental: Cells were screened for CFTR surface expression using a three stage ELISA system (Pierce Inc., USA). Briefly, BHK cells expressing 3HA-tagged ΔF508-CFTR were seeded in 96-well plates (Corning, USA) at 30,000 cells per well and incubated for 24 h at 37° C. Each well was treated with a test compound for 24 h, then cells were fixed in 4% paraformaldehyde solution and washed with PBS containing 0.1% bovine serum albumin and 0.05% tween-20. Cells were blocked for 1 h in solution containing 3% normal horse serum in PBS at room temperature. […] After washing four more times, the cells were exposed to 3,3′,5,5′ tetramethylbenzidine (Pierce Inc., USA) for 15 min, sulphuric acid (2M) was added, and absorbance was measured at 450 nm (Power-Wavex Bio-tek Instruments).
To determine if cell surface expression of CFTR could be quantified in a high-throughput screen using this assay, cells expressing tagged versions of wt or ΔF508-CFTR were seeded in 96-well plates, treated with 10% glycerol and monitored as light absorbance using an enzyme-linked assay system. As expected, untreated ΔF508-CFTR cells had low absorbance since they expressed little CFTR on their cell surface under control conditions (FIG. 3A).

[3] = Prestwick library, initial corrector assay
[4] = Prestwick library, initial corrector assay, standard deviations above untreated controls

T1 sequence (P13569 with tags, fused parts or gaps DEL508-508): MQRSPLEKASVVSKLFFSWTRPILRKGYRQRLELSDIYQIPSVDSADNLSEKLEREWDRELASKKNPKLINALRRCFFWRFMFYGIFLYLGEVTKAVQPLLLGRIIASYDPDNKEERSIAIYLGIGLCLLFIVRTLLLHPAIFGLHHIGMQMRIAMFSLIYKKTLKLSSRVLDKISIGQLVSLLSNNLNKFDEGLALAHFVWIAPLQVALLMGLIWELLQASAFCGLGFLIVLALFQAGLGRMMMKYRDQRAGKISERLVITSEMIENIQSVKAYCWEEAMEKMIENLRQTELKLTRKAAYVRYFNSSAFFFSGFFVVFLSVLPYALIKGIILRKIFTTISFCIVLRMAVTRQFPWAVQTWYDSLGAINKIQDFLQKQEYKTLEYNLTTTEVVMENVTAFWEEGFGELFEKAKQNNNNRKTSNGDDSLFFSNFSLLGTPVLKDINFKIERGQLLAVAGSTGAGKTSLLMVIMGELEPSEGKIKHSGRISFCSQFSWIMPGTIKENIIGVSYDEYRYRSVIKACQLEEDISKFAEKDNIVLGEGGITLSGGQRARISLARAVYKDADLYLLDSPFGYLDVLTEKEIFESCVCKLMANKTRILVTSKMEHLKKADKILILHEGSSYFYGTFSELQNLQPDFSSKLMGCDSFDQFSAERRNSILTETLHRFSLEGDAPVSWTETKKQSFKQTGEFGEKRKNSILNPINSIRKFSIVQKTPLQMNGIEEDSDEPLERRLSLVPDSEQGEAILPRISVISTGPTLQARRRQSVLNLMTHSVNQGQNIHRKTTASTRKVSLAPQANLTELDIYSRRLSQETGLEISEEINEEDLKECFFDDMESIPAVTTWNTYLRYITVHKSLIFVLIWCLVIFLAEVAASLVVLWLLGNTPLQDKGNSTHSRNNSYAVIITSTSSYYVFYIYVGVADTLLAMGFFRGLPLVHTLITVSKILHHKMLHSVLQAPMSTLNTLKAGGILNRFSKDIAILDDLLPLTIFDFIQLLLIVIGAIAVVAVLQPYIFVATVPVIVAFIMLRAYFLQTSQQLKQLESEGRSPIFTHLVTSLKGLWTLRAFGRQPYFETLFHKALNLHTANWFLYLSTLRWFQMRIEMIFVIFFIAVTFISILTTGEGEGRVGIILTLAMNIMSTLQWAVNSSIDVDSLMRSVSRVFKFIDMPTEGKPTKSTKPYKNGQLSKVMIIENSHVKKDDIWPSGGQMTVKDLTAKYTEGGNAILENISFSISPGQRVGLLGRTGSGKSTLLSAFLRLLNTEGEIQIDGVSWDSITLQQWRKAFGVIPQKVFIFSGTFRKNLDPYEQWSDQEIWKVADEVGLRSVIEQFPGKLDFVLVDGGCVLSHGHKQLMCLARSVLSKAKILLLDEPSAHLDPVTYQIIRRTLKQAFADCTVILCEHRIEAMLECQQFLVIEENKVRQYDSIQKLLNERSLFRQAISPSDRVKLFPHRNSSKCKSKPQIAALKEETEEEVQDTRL
T2 sequence (P13569 with tags, fused parts or gaps DEL508-508): as above

Nc1ccc(S(=O)(=O)c2ccc(N)cc2)cc1 [Dapsone]
remaining activity at 10 µM (F508del CFTR): 88% | hit in screen (class letter) (ΔF508-CFTR [1]; [3]): W (Medium and weak hits were defined as compounds giving a cell fluorescence signal that was between 2 and 3 or 1 and 2 standard deviations, respectively, above untreated control wells) | hit in screen (score) (ΔF508-CFTR [1]; [4]): 1.1

N[C@H]1CONC1=O [(S)-(−)-Cycloserine]
% YFP quench (F508del CFTR): 98% | hit in screen (class letter) (ΔF508-CFTR [1]; [3]): W (Medium and weak hits were defined as compounds giving a cell fluorescence signal that was between 2 and 3 or 1 and 2 standard deviations, respectively, above untreated control wells) | hit in screen (score) (ΔF508-CFTR [1]; [4]): 1.4

Clc1ccc(Cn2c(CN3CCCC3)nc3ccccc32)cc1 [Clemizole hydrochloride]
remaining activity at 10 µM (F508del CFTR): 84% | hit in screen (class letter) (ΔF508-CFTR [1]; [3]): W (Medium and weak hits were defined as compounds giving a cell fluorescence signal that was between 2 and 3 or 1 and 2 standard deviations, respectively, above untreated control wells) | hit in screen (score) (ΔF508-CFTR [1]; [4]): 1.5

COc1cc(C)nc(-n2nc(C)cc2OC)n1 [Epirizole]
Bart's scores (F508del CFTR; Functional assay, Prestwick compounds, positive tests / tests): 0/5 | remaining activity at 10 µM (F508del CFTR): 115% | hit in screen (class letter) (ΔF508-CFTR [1]; [3]): W (Medium and weak hits were defined as compounds giving a cell fluorescence signal that was between 2 and 3 or 1 and 2 standard deviations, respectively, above untreated control wells) | hit in screen (score) (ΔF508-CFTR [1]; [4]): 1.3

O=C(O)[C@H](O)[C@@H](O)[C@H](O[C@@H]1O[C@H](CO)[C@H](O)[C@H](O)[C@H]1O)[C@H](O)CO [Lactoblonic acid]
% YFP quench (F508del CFTR): 78% | hit in screen (class letter) (ΔF508-CFTR [1]; [3]): W (Medium and weak hits were defined as compounds giving a cell fluorescence signal that was between 2 and 3 or 1 and 2 standard deviations, respectively, above untreated control wells) | hit in screen (score) (ΔF508-CFTR [1]; [4]): 1.2

C[C@@H]1CCC[C@H](C)N1NC(=O)c1ccc(Cl)c(S(N)(=O)=O)c1 [Clopamide]
remaining activity at 10 µM (F508del CFTR): 79% | hit in screen (class letter) (ΔF508-CFTR [1]; [3]): W (Medium and weak hits were defined as compounds giving a cell fluorescence signal that was between 2 and 3 or 1 and 2 standard deviations, respectively, above untreated control wells) | hit in screen (score) (ΔF508-CFTR [1]; [4]): 1.1

Cc1cc(N)c2ccccc2[n+]1CCCCCCCCCC[n+]1c(C)cc(N)c2ccccc21.[Cl-].[Cl-] [Dequalinlum dichloride]
% YFP quench (F508del CFTR): 102% | hit in screen (class letter) (ΔF508-CFTR [1]; [3]): M (Medium and weak hits were defined as compounds giving a cell fluorescence signal that was between 2 and 3 or 1 and 2 standard deviations, respectively, above untreated control wells) | hit in screen (score) (ΔF508-CFTR [1]; [4]): 2.2

CCOc1ccc2ccccc2c1C(=O)N[C@@H]1C(=O)N2[C@@H]1SC(C)(C)[C@@H]2C(=O)O [Nafcillin sodium salt monohydrate]
remaining activity at 10 µM (F508del CFTR): 97% | hit in screen (score) (ΔF508-CFTR [1]): W 1.2

c1ccc(CNc2ncnc3[nH]cnc23)cc1 [Aminopurine, 6-benzyl]
% YFP quench (F508del CFTR): 89% | hit in screen (class letter) (ΔF508-CFTR [1]; [3]): W (Medium and weak hits were defined as compounds giving a cell fluorescence signal that was between 2 and 3 or 1 and 2 standard deviations, respectively, above untreated control wells) | hit in screen (score) (ΔF508-CFTR [1]; [4]): 1.6

CC[C@H]1OC(=O)[C@H](C)[C@@H](O[C@H]2C[C@@](C)(OC)[C@@H](O)[C@H](C)O2)[C@H](C)[C@@H](O[C@@H]2O[C@H](C)C[C@H](N(C)C)[C@H]2O)[C@](C)(O)C[C@@H](C)/C(=N\OCOCCOC)[C@H](C)[C@@H](O)[C@]1(C)O [Roxithromycin]
remaining activity at 10 µM (F508del CFTR): 100% | hit in screen (class letter) (ΔF508-CFTR [1]; [3]): W (Medium and weak hits were defined as compounds giving a cell fluorescence signal that was between 2 and 3 or 1 and 2 standard deviations, respectively, above untreated control wells) | hit in screen (score) (ΔF508-CFTR [1]; [4]): 1.2

O=C([O-])CCCc1ccccc1.[Na+] [sodium 4-phenylbutyrate]
increase in signal, suitability as positive control for the corrector assay screen (ΔF508-CFTR [1]; kifunesine 100 μM, Sodium 4 Phenylbutyrate 1 mM, curcumin 40 μM, 24 hours): not sufficient to act as a positive control | plasma membrane signal (absorbance), words (ΔF508-CFTR [2]): increased the plasma membrane signal

CC(C(=O)O)c1cccc(Oc2ccccc2)c1 (stereo not shown) [Fenoprofen calcium salt dihydrate]
remaining activity at 10 µM (F508del CFTR): 88% | hit in screen (class letter) (ΔF508-CFTR [1]; [3]): W (Medium and weak hits were defined as compounds giving a cell fluorescence signal that was between 2 and 3 or 1 and 2 standard deviations, respectively, above untreated control wells) | hit in screen (score) (ΔF508-CFTR [1]; [4]): 1.1

C[C@]12CCC(=O)C=C1CC[C@@H]1[C@@H]2[C@@H](O)C[C@@]2(C)[C@H]1CC[C@]2(O)C(=O)CO [Hydrocortisone base]
% YFP quench (F508del CFTR): 94% | hit in screen (class letter) (ΔF508-CFTR [1]; [3]): W (Medium and weak hits were defined as compounds giving a cell fluorescence signal that was between 2 and 3 or 1 and 2 standard deviations, respectively, above untreated control wells) | hit in screen (score) (ΔF508-CFTR [1]; [4]): 1.1

CC(=O)c1ccc(S(=O)(=O)NC(=O)NC2CCCCC2)cc1 [Acetohexamide]
remaining activity at 10 µM (F508del CFTR): 88% | hit in screen (class letter) (ΔF508-CFTR [1]; [3]): W (Medium and weak hits were defined as compounds giving a cell fluorescence signal that was between 2 and 3 or 1 and 2 standard deviations, respectively, above untreated control wells) | hit in screen (score) (ΔF508-CFTR [1]; [4]): 1.0

COC1=CC(=O)O[C@@H](/C=C/c2ccccc2)C1 [Kawain]
remaining activity at 10 µM (F508del CFTR): 111% | hit in screen (class letter) (ΔF508-CFTR [1]; [3]): W (Medium and weak hits were defined as compounds giving a cell fluorescence signal that was between 2 and 3 or 1 and 2 standard deviations, respectively, above untreated control wells) | hit in screen (score) (ΔF508-CFTR [1]; [4]): 1.1

CC(C)Cc1ccc([C@H](C)C(=O)O)cc1 [S-(+)-Ibuorofen]
% YFP quench (F508del CFTR): 91% | hit in screen (score) (ΔF508-CFTR [1]; [4]): 1.1

— patent US20110009351A1, “SCREENING ASSAY TO IDENTIFY CORRECTORS OF PROTEIN TRAFFICKING DEFECTS” (Traffick Therepeutics Inc., priority 2007, published 2011)
